Source: DBAASP
≈ marks a conversion by molar mass, not a printed value. Each block holds one compound with its values, some of them ahead of it.

What was measured:
Experiment in all cases: ≥ marks a high value that may be exact or a test limit, other limits are often not marked, values filed in µg/mL are converted to µM
[1] = system: Streptococcus pyogenes M1T1 5448
[2] = system: Pseudomonas aeruginosa PAO1
[3] = system: Escherichia coli BL21
[4] = system: Listeria monocytogenes 10403s
[5] = system: Acinetobacter baumannii
[6] = system: Vibrio cholerae O1 Inaba
[7] = system: Shigella sonnei ATCC 11060
[8] = system: Enterococcus faecalis ATCC 29212
[9] = system: Staphylococcus epidermidis ATCC 12228
[10] = system: Bacillus cereus ATCC 11778
[11] = system: Staphylococcus aureus ATCC 25923
[12] = system: Escherichia coli ATCC 25922
[13] = system: Escherichia coli O157:H7
[14] = system: Salmonella enterica subsp. enterica serovar Typhimurium ATCC 13311
[15] = system: Pseudomonas aeruginosa ATCC 27853
[16] = system: Salmonella enterica subsp. enterica serovar Typhimurium ATCC 14028
[17] = system: Staphylococcus aureus ATCC 43300
[18] = system: Streptococcus agalactiae
[19] = system: Salmonella enterica subsp. enterica serovar Typhimurium C77-31
[20] = system: Salmonella enterica subsp. enterica serovar Pullorum C79-13
[21] = system: Escherichia coli UB1005
[22] = system: Staphylococcus aureus ATCC 29213
[23] = system: Staphylococcus aureus
[24] = system: Salmonella enterica subsp. enterica serovar Choleraesuis CVCC 503
[25] = system: Salmonella enterica subsp. enterica serovar Typhimurium ATCC 14028s
[26] = system: Pseudomonas aeruginosa H374
[27] = system: Escherichia coli KF111
[28] = system: Staphylococcus epidermidis
[29] = system: Escherichia coli KF130
[30] = system: Pseudomonas aeruginosa H744
[31] = system: Pseudomonas aeruginosa K799
[32] = system: Escherichia coli

Compound: CC[C@H](C)[C@H](NC(=O)[C@H](CC(=O)O)NC(=O)[C@H](Cc1ccccc1)NC(=O)[C@H](CC(C)C)NC(=O)CN)C(=O)N[C@H](C(=O)N[C@@H](CCCCN)C(=O)N[C@@H](CCCCN)C(=O)N[C@H](C(=O)N[C@@H](C)C(=O)NCC(N)=O)C(C)C)C(C)C [GLFDIVKKVAG]
- MIC [4]: ≥ 218 µM
- MIC [5]: ≥ 218 µM
- MIC [6]: ≥ 218 µM
- MIC [7]: ≥ 218 µM
- MIC [8]: > 218 µM
- MIC [9]: > 218 µM
- MIC [10]: ≥ 218 µM
- MIC [11]: > 218 µM
- MIC [12]: > 218 µM
- MIC [13]: ≥ 218 µM
- MIC [14]: ≥ 218 µM
- MIC [15]: > 218 µM

Compound: CC[C@H](C)[C@H](N)C(=O)N[C@H](C(=O)N[C@@H](CS)C(=O)N[C@@H](CCCN=C(N)N)C(=O)N[C@@H](CCCCN)C(=O)N1CCC[C@H]1C(=O)N[C@H](C(=O)N[C@H](C(=O)N[C@@H](CS)C(=O)N[C@@H](CCCN=C(N)N)C(=O)N[C@@H](CCCCN)C(=O)N1CCC[C@H]1C(=O)N[C@H](C(=O)N[C@H](C(=O)N[C@@H](CS)C(=O)N[C@@H](CCCN=C(N)N)C(=O)N[C@@H](CCCCN)C(=O)N1CCC[C@H]1C(=O)N[C@H](C(=O)N[C@H](C(N)=O)[C@@H](C)CC)[C@@H](C)CC)[C@@H](C)CC)[C@@H](C)CC)[C@@H](C)CC)[C@@H](C)CC)[C@@H](C)CC [IICRKPIICRKPIICRKPII]
- MIC [16]: 8 µM (≈ 19 µg/mL)
- MIC [17]: 64 µM (≈ 152 µg/mL)
- MIC [8]: > 64 µM
- MIC [18]: ≥ 64 µM
- MIC [19]: 8 µM (≈ 19 µg/mL)
- MIC [9]: 64 µM (≈ 152 µg/mL)
- MIC [12]: 4 µM (≈ 9.5 µg/mL)
- MIC [20]: ≥ 32 µM
- MIC [21]: 4 µM (≈ 9.5 µg/mL)
- MIC [22]: > 64 µM
- MIC [23]: > 64 µM
- MIC [24]: 16 µM (≈ 38 µg/mL)

Compound: CC[C@H](C)[C@H](NC(=O)[C@H](CCCN=C(N)N)NC(=O)[C@H](CCCCN)NC(=O)[C@H](C)NC(=O)[C@@H](NC(=O)[C@@H](N)CCCCN)[C@@H](C)CC)C(=O)N[C@@H](Cc1c[nH]c2ccccc12)C(=O)N[C@@H](CCCCN)C(=O)N[C@H](C(=O)N[C@@H](CC(C)C)C(=O)N[C@@H](CCCN=C(N)N)C(=O)N[C@@H](CCCN=C(N)N)C(=O)N[C@@H](CCCN=C(N)N)C(=O)N[C@@H](CC(C)C)C(=O)N[C@@H](Cc1ccccc1)C(=O)N[C@@H](CCCN=C(N)N)C(=O)N[C@@H](CCCN=C(N)N)C(=O)N[C@H](C(=O)N[C@@H](CCCCN)C(=O)N[C@@H](CCCCN)C(=O)N[C@H](C(=O)N[C@@H](C)C(=O)NCC(N)=O)C(C)C)C(C)C)[C@@H](C)CC [KIAKRIWKILRRRLFRRVKKVAG]
- MIC [4]: 1.35 µM (≈ 3.91 µg/mL)
- MIC [5]: 2.7 µM (≈ 7.81 µg/mL)
- MIC [6]: 2.7 µM (≈ 7.81 µg/mL)
- MIC [7]: 1.35 µM (≈ 3.91 µg/mL)
- MIC [8]: 10.8 µM (≈ 31.2 µg/mL)
- MIC [9]: 1.35 µM (≈ 3.91 µg/mL)
- MIC [10]: 2.7 µM (≈ 7.81 µg/mL)
- MIC [11]: 5.4 µM (≈ 15.6 µg/mL)
- MIC [12]: 5.4 µM (≈ 15.6 µg/mL)
- MIC [13]: ≥ 86.4 µM
- MIC [14]: 2.7 µM (≈ 7.81 µg/mL)
- MIC [15]: 2.7 µM (≈ 7.81 µg/mL)

Compound: CC[C@H](C)[C@H](NC(=O)[C@H](CCC(=O)O)NC(=O)[C@H](CCCN=C(N)N)NC(=O)[C@H](CCCN=C(N)N)NC(=O)[C@H](CC(C)C)NC(=O)[C@H](Cc1ccc(O)cc1)NC(=O)[C@H](CCCCN)NC(=O)[C@H](C)NC(=O)[C@@H](NC(=O)[C@@H](NC(=O)[C@H](CCC(N)=O)NC(=O)[C@H](CCCN=C(N)N)NC(=O)[C@H](Cc1c[nH]c2ccccc12)NC(=O)[C@H](C)N)[C@@H](C)O)[C@@H](C)CC)C(=O)N[C@@H](CCCN=C(N)N)C(=O)N[C@@H](CCCCN)C(=O)N[C@@H](CCCN=C(N)N)C(=O)NCC(=O)N[C@@H](CCCN=C(N)N)C(=O)N[C@@H](CCCCN)C(=O)N[C@@H](C)C(=O)N[C@H](C(=O)N[C@H](C(=O)N[C@@H](C)C(=O)N[C@@H](Cc1c[nH]c2ccccc12)C(=O)O)[C@@H](C)CC)C(C)C [AWRQTIAKYLRREIRKRGRKAVIAW]
- MIC [1]: 4 µM (≈ 12.5 µg/mL)
- MIC [2]: 4 µM (≈ 12.5 µg/mL)
- MIC [3]: 1 µM (≈ 3.13 µg/mL)

Continued, values first:

- MIC [1]: 4 µM (≈ 12.2 µg/mL)
- MIC [2]: 16 µM (≈ 48.9 µg/mL)
- MIC [3]: 1 µM (≈ 3.06 µg/mL)
Compound: CC[C@H](C)[C@H](NC(=O)[C@H](CCCCN)NC(=O)[C@H](CCCCN)NC(=O)[C@H](CCCCN)NC(=O)[C@H](CC(C)C)NC(=O)[C@H](CCCN=C(N)N)NC(=O)[C@H](CCC(N)=O)NC(=O)[C@H](Cc1ccccc1)NC(=O)[C@@H](NC(=O)[C@@H](NC(=O)[C@H](CCC(=O)O)NC(=O)[C@H](CCCCN)NC(=O)CNC(=O)[C@H](C)N)[C@@H](C)O)[C@@H](C)CC)C(=O)N[C@@H](CCC(N)=O)C(=O)N[C@@H](CCC(=O)O)C(=O)N[C@@H](CCCCN)C(=O)N[C@@H](Cc1c[nH]c2ccccc12)C(=O)N[C@@H](CCCCN)C(=O)N[C@@H](CCCN=C(N)N)C(=O)N[C@@H](C)C(=O)N[C@H](C(=O)N[C@H](C(=O)N[C@@H](C)C(=O)N[C@@H](Cc1c[nH]c2ccccc12)C(=O)O)[C@@H](C)CC)[C@@H](C)O [AGKETIFQRLKKKIQEKWKRATIAW]

- MIC [25]: 1.37 µM (≈ 4 µg/mL)
- MIC [26]: 0.685 µM (≈ 2 µg/mL)
- MIC [27]: 0.342 µM (≈ 1 µg/mL)
- MIC [28]: 1.37 µM (≈ 4 µg/mL)
- MIC [29]: 0.342 µM (≈ 1 µg/mL)
- MIC [21]: 0.171 µM (≈ 0.5 µg/mL)
- MIC [30]: 0.685 µM (≈ 2 µg/mL)
- MIC [23]: 1.37 µM (≈ 4 µg/mL)
- MIC [15]: 4 µM (≈ 11.7 µg/mL)
- MIC [31]: 0.685 µM (≈ 2 µg/mL)
- MIC [32]: 0.171 µM (≈ 0.5 µg/mL)
Compound: CC[C@H](C)[C@H](NC(=O)[C@H](C)NC(=O)[C@H](CCCCN)NC(=O)[C@H](CC(C)C)NC(=O)[C@H](C)NC(=O)[C@@H](NC(=O)[C@H](Cc1cnc[nH]1)NC(=O)[C@H](CC(C)C)NC(=O)[C@@H](NC(=O)[C@@H](NC(=O)[C@H](CCCCN)NC(=O)[C@@H](NC(=O)[C@H](C)NC(=O)[C@H](CO)NC(=O)[C@H](CCCCN)NC(=O)[C@H](Cc1ccccc1)NC(=O)[C@@H](NC(=O)[C@H](CCCCN)NC(=O)[C@H](CC(C)C)NC(=O)[C@H](Cc1ccccc1)NC(=O)[C@H](CO)NC(=O)[C@H](CCCCN)NC(=O)[C@H](Cc1c[nH]c2ccccc12)NC(=O)[C@@H](N)CCCCN)[C@@H](C)O)C(C)C)[C@@H](C)O)C(C)C)[C@@H](C)O)C(=O)N[C@@H](CO)C(=O)N[C@@H](CO)C(=O)O [KWKSFLKTFKSAVKTVLHTALKAISS]

- MIC [25]: 1.36 µM (≈ 4 µg/mL)
- MIC [26]: 2.72 µM (≈ 8 µg/mL)
- MIC [27]: 0.339 µM (≈ 1 µg/mL)
- MIC [28]: 1.36 µM (≈ 4 µg/mL)
- MIC [29]: 0.339 µM (≈ 1 µg/mL)
- MIC [21]: 0.17 µM (≈ 0.5 µg/mL)
- MIC [30]: 2.72 µM (≈ 8 µg/mL)
- MIC [23]: 10.9 µM (≈ 32 µg/mL)
- MIC [31]: 5.43 µM (≈ 16 µg/mL)
- MIC [32]: 0.17 µM (≈ 0.5 µg/mL)
Compound: CC[C@H](C)[C@H](NC(=O)[C@H](C)NC(=O)[C@H](CCCCN)NC(=O)[C@H](CC(C)C)NC(=O)[C@H](C)NC(=O)[C@@H](NC(=O)[C@H](Cc1cnc[nH]1)NC(=O)[C@H](Cc1ccccc1)NC(=O)[C@@H](NC(=O)[C@@H](NC(=O)[C@H](CCCCN)NC(=O)[C@H](C)NC(=O)[C@@H]1CCCN1C(=O)[C@H](CO)NC(=O)[C@H](CCCCN)NC(=O)[C@H](CC(C)C)NC(=O)[C@@H](NC(=O)[C@H](CCCN=C(N)N)NC(=O)[C@H](CC(C)C)NC(=O)[C@H](Cc1ccccc1)NC(=O)[C@H](CO)NC(=O)[C@H](CCCCN)NC(=O)[C@H](Cc1c[nH]c2ccccc12)NC(=O)[C@@H](N)CCCCN)[C@@H](C)O)[C@@H](C)O)C(C)C)[C@@H](C)O)C(=O)N[C@@H](CO)C(=O)N[C@@H](CO)C(=O)O [KWKSFLRTLKSPAKTVFHTALKAISS]
